Experimental data from BindingDB's records for patent US20250382289 (Xizang Haisco Pharmaceutical, 2025).

Molecular target: Ubiquitin carboxyl-terminal hydrolase 1/WD repeat-containing protein 48 (Homo sapiens, UniProt O94782)
Assay: Inhibitory Activity on USP1/UAF1 Enzymology
Protocol: Ubiquitin rhodamine 110 was used as a substrate to detect the activity of the deubiquitinating enzyme USP1/UAF1 after drug treatment. The total test system was 20 μl, and the test buffer comprises 50 mM Tris-HCl (pH 7.8), 0.5 mM EDTA, 0.01% Bovine Serum Albumin, 1 mM DTT, and 0.01% Tween-20.

Sequence of Ubiquitin carboxyl-terminal hydrolase 1/WD repeat-containing protein 48 (O94782 whole entry): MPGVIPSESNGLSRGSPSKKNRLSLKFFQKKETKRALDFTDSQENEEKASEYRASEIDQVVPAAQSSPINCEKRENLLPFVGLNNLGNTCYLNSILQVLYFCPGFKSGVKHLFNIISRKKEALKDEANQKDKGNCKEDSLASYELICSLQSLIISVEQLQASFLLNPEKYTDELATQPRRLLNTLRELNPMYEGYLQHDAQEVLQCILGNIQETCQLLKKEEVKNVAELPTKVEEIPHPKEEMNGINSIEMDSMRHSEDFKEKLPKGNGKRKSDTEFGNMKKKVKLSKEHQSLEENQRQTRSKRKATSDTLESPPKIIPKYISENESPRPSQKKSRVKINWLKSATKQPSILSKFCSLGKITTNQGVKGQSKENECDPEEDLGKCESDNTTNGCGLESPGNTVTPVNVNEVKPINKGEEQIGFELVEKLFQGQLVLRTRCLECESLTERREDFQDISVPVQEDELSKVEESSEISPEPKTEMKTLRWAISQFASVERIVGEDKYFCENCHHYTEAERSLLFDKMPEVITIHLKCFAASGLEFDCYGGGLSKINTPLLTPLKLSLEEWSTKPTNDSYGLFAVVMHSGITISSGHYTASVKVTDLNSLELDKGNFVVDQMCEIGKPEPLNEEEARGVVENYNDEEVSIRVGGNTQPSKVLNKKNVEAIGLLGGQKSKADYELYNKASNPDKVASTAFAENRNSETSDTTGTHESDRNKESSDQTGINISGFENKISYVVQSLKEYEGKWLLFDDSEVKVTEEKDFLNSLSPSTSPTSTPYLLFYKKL
Sequence of Ubiquitin carboxyl-terminal hydrolase 1/WD repeat-containing protein 48 (Q8TAF3 whole entry, further chain): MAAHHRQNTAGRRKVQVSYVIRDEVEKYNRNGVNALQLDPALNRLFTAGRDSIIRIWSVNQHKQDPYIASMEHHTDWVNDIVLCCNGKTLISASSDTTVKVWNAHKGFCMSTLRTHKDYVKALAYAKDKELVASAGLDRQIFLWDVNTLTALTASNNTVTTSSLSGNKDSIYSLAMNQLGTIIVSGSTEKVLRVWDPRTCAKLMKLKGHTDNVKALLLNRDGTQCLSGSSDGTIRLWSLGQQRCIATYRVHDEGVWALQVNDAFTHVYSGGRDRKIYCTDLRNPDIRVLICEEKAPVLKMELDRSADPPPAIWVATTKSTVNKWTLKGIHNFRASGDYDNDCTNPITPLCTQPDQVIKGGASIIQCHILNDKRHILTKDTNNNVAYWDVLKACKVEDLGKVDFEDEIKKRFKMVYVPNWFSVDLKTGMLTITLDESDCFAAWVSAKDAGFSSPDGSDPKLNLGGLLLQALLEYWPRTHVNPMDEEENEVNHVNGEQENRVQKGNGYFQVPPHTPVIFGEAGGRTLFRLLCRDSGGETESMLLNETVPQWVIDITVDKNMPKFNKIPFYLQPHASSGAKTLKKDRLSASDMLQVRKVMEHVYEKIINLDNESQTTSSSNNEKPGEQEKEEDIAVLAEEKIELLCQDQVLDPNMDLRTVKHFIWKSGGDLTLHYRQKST

IC50 [nM]	Structure (SMILES)
< 20	Fc1c(-c2c(OC(F)F)ncnc2C2CC2)ncc2cnn(CC34CCC(c5nc(C(F)(F)F)cn5CC5CC5)(CC3)CC4)c12 [US20250382289, Compound 10]
< 20	Fc1c(-c2c(OC(F)F)ncnc2C2CC2)ncc2cnn(Cc3ccc(-c4nc(C(F)(F)F)c5n4CC4(CC4)C5)cc3)c12 [US20250382289, Compound 12]
< 20	Fc1c(-c2c(OC(F)F)ncnc2C2CC2)ncc2cnn(Cc3ccc(-c4nc(C(F)(F)F)c5n4CC(F)(F)C5)cc3)c12 [US20250382289, Compound 14]
< 20	C#CCn1cc(C(F)(F)F)nc1-c1ccc(Cn2ncc3cnc(-c4c(OC(F)F)ncnc4C4CC4)c(F)c32)cc1 [US20250382289, Compound 18]
< 20	CC#CCn1cc(C(F)(F)F)nc1-c1ccc(Cn2ncc3cnc(-c4c(OC(F)F)ncnc4C4CC4)c(F)c32)cc1 [US20250382289, Compound 19]
< 20	CC(C)n1cc(C(F)(F)F)nc1-c1ccc(Cn2ncc3cnc(-c4c(OC(F)F)ncnc4C4CC4)c(F)c32)cc1 [US20250382289, Compound 20]
< 20	COc1ncnc(C2CC2)c1-c1ncc2cnn(Cc3ccc(-c4nc(C(F)(F)F)c5n4CC4(CC4)C5)cc3)c2c1F [US20250382289, Compound 21]
